# Laboratory results as given in ChEMBL document CHEMBL3124884, “Leporizines A-C: epithiodiketopiperazines isolated from an Aspergillus species” (J Nat Prod, 2013).
# Calls of active or inactive are those of the source. The calls are words filed in the database; no cut-off is given here.
# Tests used:
# [1] = test system: Cystic fibrosis transmembrane conductance regulator (Homo sapiens), P13569 [F508del]; assay: Activity at CFTR F508del mutant (unknown origin) expressed in Fischer rat thyroid epithelial cells co-expressing YFP-H148Q/I152L assessed as forskolin/PG-01-induced increase in conductance reversible effect at 10 to 20 uM after 16 to 20 mins by conductance corrector assay in presence of CFInh-172; format: cell-based; conditions: Epithelial cell
# [2] = test system: HepG2; assay: Cytotoxicity against human HepG2 cells; format: cell-based
# [3] = test system: Cystic fibrosis transmembrane conductance regulator (Homo sapiens), P13569 [F508del]; assay: Activity at CFTR F508del mutant (unknown origin) expressed in Fischer rat thyroid epithelial cells co-expressing YFP-H148Q/I152L assessed as loss of baseline transepithelial resistance at >5 uM after 16 to 20 mins by conductance corrector assay; format: cell-based; conditions: Epithelial cell
# [4] = test system: Cystic fibrosis transmembrane conductance regulator (Homo sapiens), P13569 [F508del]; assay: Activity at CFTR F508del mutant (unknown origin) expressed in Fischer rat thyroid epithelial cells co-expressing YFP-H148Q/I152L assessed as forskolin/PG-01-induced increase in conductance reversible effect at >5 uM after 16 to 20 mins by conductance corrector assay; format: cell-based; conditions: Epithelial cell
# [5] = test system: Cystic fibrosis transmembrane conductance regulator (Homo sapiens), P13569 [F508del]; assay: Activity at CFTR F508del mutant (unknown origin) expressed in Fischer rat thyroid epithelial cells co-expressing YFP-H148Q/I152L assessed as forskolin/PG-01-induced increase in conductance reversible effect at <= 5 uM after 16 to 20 hrs by conductance corrector assay; conditions: Epithelial cell
# [6] = test system: Cystic fibrosis transmembrane conductance regulator (Homo sapiens), P13569 [F508del]; assay: Activity at CFTR F508del mutant (unknown origin) expressed in Fischer rat thyroid epithelial cells co-expressing YFP-H148Q/I152L assessed as loss of baseline transepithelial resistance at 10 uM after 16 to 20 mins by conductance corrector assay; format: cell-based; conditions: Epithelial cell
# [7] = test system: Cystic fibrosis transmembrane conductance regulator (Homo sapiens), P13569 [F508del]; assay: Activity at CFTR F508del mutant (unknown origin) expressed in Fischer rat thyroid epithelial cells co-expressing YFP-H148Q/I152L assessed as loss of baseline transepithelial resistance at 2.5 to 20 uM after 16 to 20 mins by conductance corrector assay; format: cell-based; conditions: Epithelial cell
# [8] = test system: Cystic fibrosis transmembrane conductance regulator (Homo sapiens), P13569 [F508del]; assay: Activity at CFTR F508del mutant (unknown origin) expressed in Fischer rat thyroid epithelial cells co-expressing YFP-H148Q/I152L assessed as forskolin/PG-01-induced increase in conductance reversible effect at 2.5 to 20 uM after 16 to 20 mins by conductance corrector assay; format: cell-based; conditions: Epithelial cell
# Cystic fibrosis transmembrane conductance regulator (Homo sapiens), P13569 [F508del], sequence (P13569 as listed by the source): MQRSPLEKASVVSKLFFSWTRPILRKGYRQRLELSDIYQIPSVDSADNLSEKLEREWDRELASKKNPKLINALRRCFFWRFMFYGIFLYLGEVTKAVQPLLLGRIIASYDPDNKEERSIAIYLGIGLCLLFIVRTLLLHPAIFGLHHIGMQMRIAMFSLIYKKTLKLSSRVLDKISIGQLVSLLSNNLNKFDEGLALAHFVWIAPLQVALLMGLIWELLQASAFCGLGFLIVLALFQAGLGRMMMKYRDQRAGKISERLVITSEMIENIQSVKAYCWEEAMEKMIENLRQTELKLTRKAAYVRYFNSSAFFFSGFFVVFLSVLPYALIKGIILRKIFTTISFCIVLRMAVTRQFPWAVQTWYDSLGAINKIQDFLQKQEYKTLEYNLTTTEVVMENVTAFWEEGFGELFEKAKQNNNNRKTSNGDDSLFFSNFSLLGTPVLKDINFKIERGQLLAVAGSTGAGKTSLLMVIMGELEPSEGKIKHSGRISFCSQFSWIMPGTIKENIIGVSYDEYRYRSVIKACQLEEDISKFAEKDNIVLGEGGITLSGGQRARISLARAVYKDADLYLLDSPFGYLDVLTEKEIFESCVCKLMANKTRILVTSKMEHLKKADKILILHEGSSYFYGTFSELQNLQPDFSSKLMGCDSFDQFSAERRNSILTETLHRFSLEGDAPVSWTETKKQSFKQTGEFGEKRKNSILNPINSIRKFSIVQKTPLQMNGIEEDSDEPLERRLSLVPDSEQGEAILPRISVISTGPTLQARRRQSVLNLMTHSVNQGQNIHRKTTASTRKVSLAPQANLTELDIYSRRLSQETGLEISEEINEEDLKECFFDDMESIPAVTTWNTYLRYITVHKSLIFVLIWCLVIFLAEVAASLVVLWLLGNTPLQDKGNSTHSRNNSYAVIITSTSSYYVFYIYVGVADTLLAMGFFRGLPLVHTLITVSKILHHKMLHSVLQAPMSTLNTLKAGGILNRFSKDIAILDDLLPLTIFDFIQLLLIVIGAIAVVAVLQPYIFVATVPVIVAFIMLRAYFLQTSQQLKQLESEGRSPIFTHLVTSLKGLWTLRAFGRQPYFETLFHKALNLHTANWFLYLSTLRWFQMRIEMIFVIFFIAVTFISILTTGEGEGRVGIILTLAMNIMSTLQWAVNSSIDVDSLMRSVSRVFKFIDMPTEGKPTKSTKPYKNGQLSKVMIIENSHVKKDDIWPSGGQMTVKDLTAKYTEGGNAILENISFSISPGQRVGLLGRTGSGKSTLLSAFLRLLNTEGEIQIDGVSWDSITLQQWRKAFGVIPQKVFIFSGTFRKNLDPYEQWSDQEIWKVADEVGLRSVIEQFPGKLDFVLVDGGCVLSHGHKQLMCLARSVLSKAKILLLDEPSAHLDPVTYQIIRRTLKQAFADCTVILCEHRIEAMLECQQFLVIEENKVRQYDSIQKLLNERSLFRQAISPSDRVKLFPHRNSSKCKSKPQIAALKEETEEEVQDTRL
Activity [1],Activity [3],Activity [4],Activity [5],Activity [6],Activity [7],Activity [8],Structure (SMILES),Activity [2]
Active,Active,Active,inactive,,,,C[C@@H]1OC2=C(C(=O)C3(O)C(C2)N2C(=O)[C@@]45SS[C@@]2(C(=O)N4[C@H]2Nc4ccccc4C2(O)[C@H]5O)[C@@H]3O)C1(C)C (some centres undefined),Toxic
,,,,Active,,,COc1ccc(Cl)cc1Nc1nc(-c2sc(NC(=O)C(C)(C)C)nc2C)cs1,
Active,Active,Active,inactive,,,,C[C@@H]1OC2=C(C(=O)C3(O)C(C2)N2C(=O)[C@@]45SSS[C@@]2(C(=O)N4[C@H]2Nc4ccccc4C2(O)[C@H]5O)[C@@H]3O)C1(C)C (some centres undefined),Toxic
,,,,,inactive,inactive,CS[C@]12C(=O)N3[C@H]4Nc5ccccc5C4(O)[C@@H](O)[C@@]3(SC)C(=O)N1C1CC3=C(C(=O)C1(O)[C@H]2O)C(C)(C)[C@H](C)O3 (some centres undefined),Non-toxic
